Assay results published in patent US20230382863A1, “MEK INHIBITORS AND USES THEREOF” (Ikena Oncology, Inc., priority 2022, published 2023).

What was measured:
[1] = Pharmacokinetics in rat; type: in vivo; conditions: plasma, IV; for Vd: read-out: Vdss
[2] = tested on: Phosphorylation of MEK1/2 in AsPC1 cells; assay: 4 hour pMEK1/2 MSD Assay; type: cell-based; conditions: Homo sapiens; AsPC1, 4 hours; read-out: pMEK IC50
Description: AsPC1 cells were seeded at 10,000 cells/well overnight in 96-well plates, then treated with a 12-point dose response of compounds (Starting dose of 1000 nM and 3-fold dilution) for 4 hours. AsPC1 cells are a K-Ras mutant (G12D) pancreatic cancer cell line. Phosphorylation of MEK1/2 on residues Ser217 and Ser221 were detected using a MesoScale Discovery (MSD) assay (MSD Cat #K15129D-2). MEK1/2 phosphorylation levels were normalized to total MEK1/2 protein detected in each well on the same MSD plate. IC50 values were determined by fitting a variable slope, four parameters curve to the compound concentration to normalized Phospho-MEK1/2 relationship.

[3] = tested on: pERK HCT-116 (G13D); assay: pERK HCT-116 (G13D) ICW (4 hour); type: cell-based; conditions: Homo sapiens, read-out: pERK HCT-116 (G13D) ICW (4 hour): Average IC50 (nM)
[4] = target: MEK1-CRAF complex (Homo sapiens (Human), UniProt Q02750); assay: Stabilization of MEK1-CRAF complex assay (AlphaLISA); type: binding
Description: MEK1 was diluted to 4 nM, and nickel chelate donor beads and glutathione acceptor beads were diluted to 80 μg/mL. CRAF was diluted to a top concentration of 160 nM, which was subsequently diluted to 80, 40, 20, 10, 5, 2.5, 1.25, and 0.625 nM through 1:2 serial dilution.
Exemplary MEK inhibitor compounds (0, 0.01, 0.1, or 1 μM) were added to a 384-AlphaPlate (PerkinElmer, 6008350) by a digital liquid dispenser (Tecan D300e) based on a total volume of 20 μL reaction mixture.
5 μL 4×MEK1 stock solution was added to wells A1-P20 by multichannel pipettes. The plate was sealed with clear olefin sealing tape (Thermo Scientific, 232701), centrifuged at 1000 rpm for 1 minute, and incubated at room temperature for 30 minutes.
5 μL 4×CRAF stock solution at different concentrations or 5 μL or 10 μL AlphaLISA buffer was added by multichannel pipettes. The plate was sealed, centrifuged at 1000 rpm for 1 minute, and incubated at room temperature for 60 minutes.
5 μL 4×glutathione acceptor beads were first added to all wells by multichannel pipettes. The ambient light was subsequently adjusted to <100 lux (light meter) before adding 5 μL 4×nickel chelate donor beads to the same wells. From this step on, the plate was covered with a black plate cover, centrifuged at 1000 rpm for 1 minute, and incubated at room temperature for 60 minutes.
Data were collected on a PHERAStar FSX (BMG LABTECH) using the AlphaLISA module (excitation: 680 nm, emission: 615 nm), with a gain of 3600. The excitation time was 0.30 seconds, and data collection started after a 0.04-second delay for a total integration time of 0.60 seconds.
The individual AlphaLISA counts of wells with exemplary MEK inhibitor compound were divided by the average AlphaLISA counts of wells without compound to obtain AlphaLISA signal/background ratio (S/B). The dissociation constant (KD) of MEK1-CRAF was calculated using nonlinear regression curve fit in GraphPad PRISM® 9.0 software.

[5] = target: uMEK/BRAF (Homo sapiens (Human), UniProt Q02750); assay: MEK-RAF Binding Assay (uMEK/BRAF HTRF)
[6] = Cassette pharmacokinetics studies in mice; type: in vivo; conditions: male, Balb/c, plasma, Mouse
Description: Pharmacokinetics studies were conducted using cassette dosing protocols, with test compounds administered per mouse. Treatment groups were 3 mice (˜6-8 weeks old, ˜20-30 g Balb/c male mice) per route of administration. Compounds were formulated in 5% DMSO and 95% PEG400 with final concentrations of 0.5 mg/mL for IV and PO dosing. Compounds were dosed at 2 mg/kg for IV dosing and 5 mg/kg for PO dosing. Blood samples were withdrawn at 0.083, 0.25, 0.5, 1.0, 2.0, 4.0, 6.0, 8.0, and 24 hours following IV dosing, and 0.25, 0.5, 1.0, 2.0, 4.0, 6.0, 8.0, and 24 hours following PO dosing. Blood samples were centrifuged at 4,000 g for 5 minutes at 4° C. to obtain plasma samples. Plasma samples were diluted with acetonitrile containing internal standard, vortexed for 30 seconds, then centrifuged at 4,000 rpm for 15 minutes at 4° C. The supernatant was diluted with water, and compound concentration was determined by HPLC/MS/MS compared to calibration standards of 0.5-1,000 ng/mL.
Where route is listed as “IV*”, the compound was dosed IV at 1 mg/kg.

[7] = tested on: Phosphorylation of ERK1/2 in AsPC1 cells; assay: 4 hour pERK1/2 HTRF Assay; type: cell-based; conditions: Homo sapiens, ASPC1, read-out: pERK AsPC-1 HTRF (4 hour): Average IC50 (nM); AsPC-1, 4 hour
Description: AsPC1 cells were seeded at 20,000 cells/well overnight in 96-well plates, then treated with a 12-point dose response of compounds (Starting dose of 3000 nM and 3-fold dilution) for 4 hours. AsPC1 cells are a K-Ras mutant cell line. Phosphorylation of ERK1/2 on residues Thr202 and Tyr204 were detected using a Homogenous Time-Resolved Fluorescence (HTRF) assay (Cisbio Cat #64ERKPEG). Briefly, ERK phosphorylation was detected using a sandwich assay format using two phospho-ERK specific antibodies, one labelled with EU^3+-Cryptate (donor) and the second with d2 (acceptor). The Fluorescence Resonance Energy Transfer (FRET) towards the d2 acceptor was detected at a wavelength of 665 nm. ERK1/2 phosphorylation levels were normalized to total ERK1/2 protein levels in each well. IC50 values were determined by fitting a variable slope, four parameters curve to the compound concentration to normalized Phospho-ERK1/2 relationship.

[8] = tested on: cancer cell lines; assay: In vitro MEK inhibitor drug combinations (Cell Titer Glo, Loewe synergy); type: cell-based; conditions: combination with I-2, 5 days
Description: Cell viability was determined by Cell Titer Glo assay. […] A normalized Loewe sum of synergy score of >10 was considered synergistic, <10, but >−10 additive, and <−10 antagonistic.

Sequence of MEK1-CRAF complex (Q02750 whole entry, looked up): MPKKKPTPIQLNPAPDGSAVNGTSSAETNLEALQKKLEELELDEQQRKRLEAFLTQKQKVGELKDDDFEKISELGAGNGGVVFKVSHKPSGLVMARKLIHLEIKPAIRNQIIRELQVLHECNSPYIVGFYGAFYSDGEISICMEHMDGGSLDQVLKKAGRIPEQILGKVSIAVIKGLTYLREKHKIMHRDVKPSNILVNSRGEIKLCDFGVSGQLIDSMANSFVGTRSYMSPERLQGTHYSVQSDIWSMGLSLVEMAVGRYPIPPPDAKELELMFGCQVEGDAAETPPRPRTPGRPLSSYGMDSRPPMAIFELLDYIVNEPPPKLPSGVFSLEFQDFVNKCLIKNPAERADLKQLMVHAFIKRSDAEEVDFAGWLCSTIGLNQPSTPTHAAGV
Sequence of MEK1-CRAF complex (P04049 whole entry partner, looked up): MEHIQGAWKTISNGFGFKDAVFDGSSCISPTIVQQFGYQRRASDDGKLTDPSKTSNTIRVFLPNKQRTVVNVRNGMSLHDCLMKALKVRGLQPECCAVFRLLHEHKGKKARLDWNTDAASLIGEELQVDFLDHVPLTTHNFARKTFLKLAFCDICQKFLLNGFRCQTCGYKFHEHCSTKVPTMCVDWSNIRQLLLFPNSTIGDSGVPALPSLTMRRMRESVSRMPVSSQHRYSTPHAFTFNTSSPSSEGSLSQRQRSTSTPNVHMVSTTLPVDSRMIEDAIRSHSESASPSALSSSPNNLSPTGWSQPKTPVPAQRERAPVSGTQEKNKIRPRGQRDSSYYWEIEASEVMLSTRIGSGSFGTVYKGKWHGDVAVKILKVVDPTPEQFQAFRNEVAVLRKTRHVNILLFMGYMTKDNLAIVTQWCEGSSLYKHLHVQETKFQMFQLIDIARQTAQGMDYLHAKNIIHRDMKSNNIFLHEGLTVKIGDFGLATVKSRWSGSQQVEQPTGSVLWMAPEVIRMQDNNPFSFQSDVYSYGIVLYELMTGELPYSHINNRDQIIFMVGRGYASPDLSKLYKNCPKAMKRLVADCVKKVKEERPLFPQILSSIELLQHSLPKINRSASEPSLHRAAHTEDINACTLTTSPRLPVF
Sequence of uMEK/BRAF (Q02750 whole entry): as the sequence (Q02750 whole entry, looked up) above

Structure (SMILES) | KD Ratio (mean), compound to DMSO ([4]; compound 0.01 μM) | KD Ratio (mean), compound to DMSO ([4]; compound 0.1 μM) | KD Ratio (mean), compound to DMSO ([4]; compound 1 μM) | IC50 [5] | AUC(0-inf) ([6]; PO, 5 mg/kg) | AUC(0-t) ([6]; PO, 5 mg/kg) | Cmax ([6]; PO, 5 mg/kg) | Tmax ([6]; PO, 5 mg/kg) | half-life ([6]; PO, 5 mg/kg) | IC50 [7] | other results
O=C1CCc2c(Oc3ccc4c(c3)[C@@H]3[C@H](O4)[C@H]3c3nc4ccc(C(F)(F)F)cc4[nH]3)ccnc2N1 [Lifirafenib] |  |  |  |  |  |  |  |  |  |  | Loewe Synergy Score > 10 ([8]; NCI-H358, NCI-H1373, NCI-H2122): 3/3 cell lines
C=CC(=O)N1CCN(c2nc(=O)n(-c3c(C)ccnc3C(C)C)c3nc(-c4c(O)cccc4F)c(F)cc23)[C@@H](C)C1 [Sotorasib] |  |  |  |  |  |  |  |  |  |  | Loewe Synergy Score > 10 ([8]; NCI-H358, NCI-H1373, NCI-H2122, MiaPACA2, NCI-H2030): 4/5 cell lines
Cc1ccc(NC(=O)c2ccnc(C(F)(F)F)c2)cc1-c1cc(OCCO)nc(N2CCOCC2)c1 [LXH254] |  |  |  |  |  |  |  |  |  |  | Loewe Synergy Score > 10 ([8]; AsPC-1, HPAF, MiaPACA2, NCI-H1373, NCI-H2122, PANC03276): 6/6 cell lines

Second part, led by results:

KD Ratio (mean), compound to DMSO ([4]; compound 0.01 μM) | KD Ratio (mean), compound to DMSO ([4]; compound 0.1 μM) | KD Ratio (mean), compound to DMSO ([4]; compound 1 μM) | IC50 [5] | AUC(0-inf) ([6]; PO, 5 mg/kg) | AUC(0-t) ([6]; PO, 5 mg/kg) | Cmax ([6]; PO, 5 mg/kg) | Tmax ([6]; PO, 5 mg/kg) | half-life ([6]; PO, 5 mg/kg) | IC50 [7] | Structure (SMILES) | other results
0.80 | 0.55 | 0.42 | < 100 nM | 635 ng·h/mL | 614 ng·h/mL | 432 ng/mL | 0.4 h | 11.6 h |  | CNS(=O)(=O)Nc1cccc(Oc2c(C(=O)NC3CC3)c(Nc3ccc(I)cc3F)n(C)c(=O)c2C)c1OC [Compound I-1] | AUC(0-inf) ([1]; 0.2 mg/kg): 107 ng·h/mL; AUC(0-t) ([1]; 0.2 mg/kg): 100 ng·h/mL; clearance ([1]; 0.2 mg/kg): 31.9 mL/min/kg; half-life ([1]; 0.2 mg/kg): 2.4 h; Vd ([1]; 0.2 mg/kg): 4.2 L/kg; IC50 [2]: < 100 nM; IC50 [3]: < 100 nM; AUC(0-inf) ([6]; IV, 2 mg/kg): 455 ng·h/mL; AUC(0-t) ([6]; IV, 2 mg/kg): 452 ng·h/mL; clearance ([6]; IV, 2 mg/kg): 74.9 mL/min/kg; half-life ([6]; IV, 2 mg/kg): 1.67 h; Vd ([6]; IV, 2 mg/kg, read-out: Vdss): 3.2 L/kg
0.78 | 0.57 | 0.57 | < 100 nM | 511 ng·h/mL | 506 ng·h/mL | 418 ng/mL | 0.4 h | 1.11 h | < 100 nM | Cc1c(Oc2cccc(NS(=O)(=O)NC3CC3)c2Cl)c(C(=O)NC2CC2)c(Nc2ccc(I)cc2F)n(C)c1=O [Compound I-42] | AUC(0-inf) ([1]; 1 mg/kg): 217 ng·h/mL; AUC(0-t) ([1]; 1 mg/kg): 205 ng·h/mL; clearance ([1]; 1 mg/kg): 76.8 mL/min/kg; half-life ([1]; 1 mg/kg): 2.09 h; Vd ([1]; 1 mg/kg): 9.9 L/kg
0.69 | 0.52 | 0.51 | < 100 nM | 803 ng·h/mL | 763 ng·h/mL | 488 ng/mL | 0.3 h | 3.92 h | < 100 nM | CCNS(=O)(=O)Nc1cccc(Oc2c(C(=O)NC3CC3)c(Nc3ccc(I)cc3F)n(C)c(=O)c2C)c1Cl [Compound I-43] | 
